From patent publication US20100041089A1, “IMPROVED METHOD FOR DETECTING CHEMICAL […]” (priority 2006, published 2010)

Test system: yeast genes (expressed mRNA)
Experiment: DNA chip measurement of expressed mRNA of yeast genes after culture with a toxic chemical substance
Assay type: cell-based, Saccharomyces cerevisiae S288C
In short: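 Yeast S288C, YPD 25° C; toxicant at log phase, 2 h, sublethal growth-inhibiting conc.; no-chemical control. Hot SDS/acetate RNA extraction, oligo-dT mRNA, Cy3/Cy5-dUTP RT. Whole-genome chip, 65° C >12 h. Readout: treated/control intensity ratio, ≥2 significant.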

## Oc1cc(Cl)c(Cl)cc1Cl [(6), 2,4,5-Trichlorophenol]
Yeast gene YJR054W, cultured two hours with substance
  The level of expressed mRNA in the presence of chemical substance/The level of expressed mRNA in the absence of chemical substance: 0.7
Yeast gene YKL039W
  The level of expressed mRNA in the presence of chemical substance/The level of expressed mRNA in the absence of chemical substance: 4.9
Yeast gene YKL071W, cultured two hours with substance
  The level of expressed mRNA in the presence of chemical substance/The level of expressed mRNA in the absence of chemical substance: 18.6
Yeast gene YKL086W, cultured two hours with substance
  The level of expressed mRNA in the presence of chemical substance/The level of expressed mRNA in the absence of chemical substance: 1.0
Yeast gene YKL151C, cultured two hours with substance
  The level of expressed mRNA in the presence of chemical substance/The level of expressed mRNA in the absence of chemical substance: 2.0
Yeast gene YKL153W, cultured two hours with substance
  The level of expressed mRNA in the presence of chemical substance/The level of expressed mRNA in the absence of chemical substance: 2.9
Yeast gene YKL195W, cultured two hours with substance
  The level of expressed mRNA in the presence of chemical substance/The level of expressed mRNA in the absence of chemical substance: 2.5
Yeast gene YKR076W
  The level of expressed mRNA in the presence of chemical substance/The level of expressed mRNA in the absence of chemical substance: 4.7
Yeast gene YKR091W, cultured two hours with substance
  The level of expressed mRNA in the presence of chemical substance/The level of expressed mRNA in the absence of chemical substance: 1.0
Yeast gene YLR054C, cultured two hours with substance
  The level of expressed mRNA in the presence of chemical substance/The level of expressed mRNA in the absence of chemical substance: 1.2
Yeast gene YLR149C, cultured two hours with substance
  The level of expressed mRNA in the presence of chemical substance/The level of expressed mRNA in the absence of chemical substance: 1.4
Yeast gene YLR152C, cultured two hours with substance
  The level of expressed mRNA in the presence of chemical substance/The level of expressed mRNA in the absence of chemical substance: 2.1
Yeast gene YLR194C, cultured two hours with substance
  The level of expressed mRNA in the presence of chemical substance/The level of expressed mRNA in the absence of chemical substance: 0.9
Yeast gene YLR280C, cultured two hours with substance
  The level of expressed mRNA in the presence of chemical substance/The level of expressed mRNA in the absence of chemical substance: 0.9
Yeast gene YLR324W, cultured two hours with substance
  The level of expressed mRNA in the presence of chemical substance/The level of expressed mRNA in the absence of chemical substance: 1.2
Yeast gene YLR350W, cultured two hours with substance
  The level of expressed mRNA in the presence of chemical substance/The level of expressed mRNA in the absence of chemical substance: 1.6
Yeast gene YLR387C, cultured two hours with substance
  The level of expressed mRNA in the presence of chemical substance/The level of expressed mRNA in the absence of chemical substance: 1.9
Yeast gene YLR460C, cultured two hours with substance
  The level of expressed mRNA in the presence of chemical substance/The level of expressed mRNA in the absence of chemical substance: 0.6
Yeast gene YML117W, cultured two hours with substance
  The level of expressed mRNA in the presence of chemical substance/The level of expressed mRNA in the absence of chemical substance: 1.0
Yeast gene YML128C, cultured two hours with substance
  The level of expressed mRNA in the presence of chemical substance/The level of expressed mRNA in the absence of chemical substance: 5.1
Yeast gene YMR009W, cultured two hours with substance
  The level of expressed mRNA in the presence of chemical substance/The level of expressed mRNA in the absence of chemical substance: 1.2
Yeast gene YMR067C, cultured two hours with substance
  The level of expressed mRNA in the presence of chemical substance/The level of expressed mRNA in the absence of chemical substance: 1.4
Yeast gene YMR090W, cultured two hours with substance
  The level of expressed mRNA in the presence of chemical substance/The level of expressed mRNA in the absence of chemical substance: 3.8
Yeast gene YMR095C, cultured two hours with substance
  The level of expressed mRNA in the presence of chemical substance/The level of expressed mRNA in the absence of chemical substance: 0.7
Yeast gene YMR097C, cultured two hours with substance
  The level of expressed mRNA in the presence of chemical substance/The level of expressed mRNA in the absence of chemical substance: 1.2
Yeast gene YMR102C, cultured two hours with substance
  The level of expressed mRNA in the presence of chemical substance/The level of expressed mRNA in the absence of chemical substance: 6.3
Yeast gene YMR107W, cultured two hours with substance
  The level of expressed mRNA in the presence of chemical substance/The level of expressed mRNA in the absence of chemical substance: 1.0
Yeast gene YMR140W, cultured two hours with substance
  The level of expressed mRNA in the presence of chemical substance/The level of expressed mRNA in the absence of chemical substance: 17.1
Yeast gene YMR173W (stress protein genes)
  The level of expressed mRNA in the presence of chemical substance/The level of expressed mRNA in the absence of chemical substance: 5.0
Yeast gene YMR180C, cultured two hours with substance
  The level of expressed mRNA in the presence of chemical substance/The level of expressed mRNA in the absence of chemical substance: 2.4
Yeast gene YMR184W, cultured two hours with substance
  The level of expressed mRNA in the presence of chemical substance/The level of expressed mRNA in the absence of chemical substance: 0.9
Yeast gene YMR191W, cultured two hours with substance
  The level of expressed mRNA in the presence of chemical substance/The level of expressed mRNA in the absence of chemical substance: 1.0
Yeast gene YMR295C, cultured two hours with substance
  The level of expressed mRNA in the presence of chemical substance/The level of expressed mRNA in the absence of chemical substance: 1.9
Yeast gene YMR316W, cultured two hours with substance
  The level of expressed mRNA in the presence of chemical substance/The level of expressed mRNA in the absence of chemical substance: 0.7
Yeast gene YNL044W, cultured two hours with substance
  The level of expressed mRNA in the presence of chemical substance/The level of expressed mRNA in the absence of chemical substance: 0.9
Yeast gene YNL074C, cultured two hours with substance
  The level of expressed mRNA in the presence of chemical substance/The level of expressed mRNA in the absence of chemical substance: 1.7
Yeast gene YNL092W, cultured two hours with substance
  The level of expressed mRNA in the presence of chemical substance/The level of expressed mRNA in the absence of chemical substance: 1.2
Yeast gene YNL115C, cultured two hours with substance
  The level of expressed mRNA in the presence of chemical substance/The level of expressed mRNA in the absence of chemical substance: 9.1
Yeast gene YNL156C, cultured two hours with substance
  The level of expressed mRNA in the presence of chemical substance/The level of expressed mRNA in the absence of chemical substance: 1.3
Yeast gene YNL160W (stress protein genes)
  The level of expressed mRNA in the presence of chemical substance/The level of expressed mRNA in the absence of chemical substance: 5.8
Yeast gene YNL190W, cultured two hours with substance
  The level of expressed mRNA in the presence of chemical substance/The level of expressed mRNA in the absence of chemical substance: 0.5
Yeast gene YNL208W, cultured two hours with substance
  The level of expressed mRNA in the presence of chemical substance/The level of expressed mRNA in the absence of chemical substance: 1.4
Yeast gene YNL234W, cultured two hours with substance
  The level of expressed mRNA in the presence of chemical substance/The level of expressed mRNA in the absence of chemical substance: 1.3
Yeast gene YNL281W, cultured two hours with substance
  The level of expressed mRNA in the presence of chemical substance/The level of expressed mRNA in the absence of chemical substance: 0.9
Yeast gene YNL300W, cultured two hours with substance
  The level of expressed mRNA in the presence of chemical substance/The level of expressed mRNA in the absence of chemical substance: 0.4
Yeast gene YNL305C, cultured two hours with substance
  The level of expressed mRNA in the presence of chemical substance/The level of expressed mRNA in the absence of chemical substance: 1.1
Yeast gene YNR064C, cultured two hours with substance
  The level of expressed mRNA in the presence of chemical substance/The level of expressed mRNA in the absence of chemical substance: 2.1
Yeast gene YNR068C, cultured two hours with substance
  The level of expressed mRNA in the presence of chemical substance/The level of expressed mRNA in the absence of chemical substance: 0.4
Yeast gene YOL032W, cultured two hours with substance
  The level of expressed mRNA in the presence of chemical substance/The level of expressed mRNA in the absence of chemical substance: 2.1
Yeast gene YOL036W, cultured two hours with substance
  The level of expressed mRNA in the presence of chemical substance/The level of expressed mRNA in the absence of chemical substance: 1.2
Yeast gene YOL047C, cultured two hours with substance
  The level of expressed mRNA in the presence of chemical substance/The level of expressed mRNA in the absence of chemical substance: 1.5
Yeast gene YOL071W, cultured two hours with substance
  The level of expressed mRNA in the presence of chemical substance/The level of expressed mRNA in the absence of chemical substance: 1.7
Yeast gene YOL082W, cultured two hours with substance
  The level of expressed mRNA in the presence of chemical substance/The level of expressed mRNA in the absence of chemical substance: 1.8
Yeast gene YOL083W, cultured two hours with substance
  The level of expressed mRNA in the presence of chemical substance/The level of expressed mRNA in the absence of chemical substance: 4.5
Yeast gene YOL117W, cultured two hours with substance
  The level of expressed mRNA in the presence of chemical substance/The level of expressed mRNA in the absence of chemical substance: 2.0
Yeast gene YOL131W, cultured two hours with substance
  The level of expressed mRNA in the presence of chemical substance/The level of expressed mRNA in the absence of chemical substance: 1.1
Yeast gene YOL150C, cultured two hours with substance
  The level of expressed mRNA in the presence of chemical substance/The level of expressed mRNA in the absence of chemical substance: 5.2
Yeast gene YOL162W, cultured two hours with substance
  The level of expressed mRNA in the presence of chemical substance/The level of expressed mRNA in the absence of chemical substance: 1.2
Yeast gene YOR019W, cultured two hours with substance
  The level of expressed mRNA in the presence of chemical substance/The level of expressed mRNA in the absence of chemical substance: 1.3
Yeast gene YOR197W, cultured two hours with substance
  The level of expressed mRNA in the presence of chemical substance/The level of expressed mRNA in the absence of chemical substance: 1.3
Yeast gene YOR248W, cultured two hours with substance
  The level of expressed mRNA in the presence of chemical substance/The level of expressed mRNA in the absence of chemical substance: 0.2
Yeast gene YOR255W, cultured two hours with substance
  The level of expressed mRNA in the presence of chemical substance/The level of expressed mRNA in the absence of chemical substance: 0.5
Yeast gene YOR382W, cultured two hours with substance
  The level of expressed mRNA in the presence of chemical substance/The level of expressed mRNA in the absence of chemical substance: 13.1
Yeast gene YOR383C
  The level of expressed mRNA in the presence of chemical substance/The level of expressed mRNA in the absence of chemical substance: 6.8
Yeast gene YPL052W, cultured two hours with substance
  The level of expressed mRNA in the presence of chemical substance/The level of expressed mRNA in the absence of chemical substance: 1.9
Yeast gene YPL087W, cultured two hours with substance
  The level of expressed mRNA in the presence of chemical substance/The level of expressed mRNA in the absence of chemical substance: 4.3
Yeast gene YPL196W, cultured two hours with substance
  The level of expressed mRNA in the presence of chemical substance/The level of expressed mRNA in the absence of chemical substance: 2.0
Yeast gene YPL206C, cultured two hours with substance
  The level of expressed mRNA in the presence of chemical substance/The level of expressed mRNA in the absence of chemical substance: 1.8
Yeast gene YPL222W, cultured two hours with substance
  The level of expressed mRNA in the presence of chemical substance/The level of expressed mRNA in the absence of chemical substance: 2.2
Yeast gene YPR023C, cultured two hours with substance
  The level of expressed mRNA in the presence of chemical substance/The level of expressed mRNA in the absence of chemical substance: 1.4
Yeast gene YPR079W, cultured two hours with substance
  The level of expressed mRNA in the presence of chemical substance/The level of expressed mRNA in the absence of chemical substance: 1.0
Yeast gene YPR151C, cultured two hours with substance
  The level of expressed mRNA in the presence of chemical substance/The level of expressed mRNA in the absence of chemical substance: 1.6
